In experiment [1] the target is T1, Mcl-1/Bim interaction, recombinant human Mcl-1 (171-327) (Homo sapiens, UniProt Q07820).
T1 construct: made in house
In words: Cell free Mcl-1: Bim Affinity Assay (Mcl-1 HTRF). The experiment is classed as binding. The gist of the method: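 Biotin-Bim(51-76) peptide, TR-FRET readout, overnight incubation; IC50 from duplicate competition curves, 4-parameter fit.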
(In general: In TR-FRET formats the signal depends on donor and acceptor labels being close together.)

The subject of experiment [2] is OPM-2 human multiple myeloma cell line. In words: Cell Viability Assay (OPM-2 10 FBS). The experiment is classed as cell-based. Conditions: OPM-2 cells, CellTiter-Glo. The gist of the method: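 IC50 from 4-parameter logistic fit of CellTiter-Glo luminescence. 3000 cells/well, 10% FBS medium, serial compound dilutions, 16 h, 37 °C/5% CO2; read 25 min post-reagent.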

[3] abbreviates: cell free Mcl-1:Bim TR-FRET, recombinant human Mcl-1 (171-327).
Setting [4] is: Homo sapiens, OPM-2, 16 h, 16 h.
[5] abbreviates: TR-FRET, 0.1 nM Mcl-1 (171-327), 0.05 nM biotin-Bim (51-76).
The mark [6] stands for this setting: Homo sapiens, OPM-2, 16 h, 16 h incubation.

This passage reports IC50 results from patent US12091425B2 (AMGEN INC., priority 2016, dated 2024).

The IC50 is the point on the concentration scale where inhibition reaches its midpoint.

T1 sequence (Q07820 171-327): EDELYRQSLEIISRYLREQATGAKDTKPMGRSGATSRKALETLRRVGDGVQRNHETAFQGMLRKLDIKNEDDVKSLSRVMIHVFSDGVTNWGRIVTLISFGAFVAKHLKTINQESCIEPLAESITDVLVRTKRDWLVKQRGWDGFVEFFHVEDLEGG

For the compound `CC[C@@H]1C/C=C/[C@H](OCC(=O)O)[C@@H]2CC[C@H]2CN2C[C@@]3(CCCc4cc(Cl)ccc43)COc3ccc(cc32)C(=O)NS1(=O)=O` [Example 764, (((1S,3′R,6′R,7′S,8′E,11′R)-6-chloro-11′-ethyl-12′,12′-dioxido-14′-oxo-3,4-dihydro-2H-spiro[naphthalene-1,21′-[19]oxa[12]thia[1,13]diazatetracyclo[13.7.2.0^3,6.0^18,23]tetracosa[8,15,17,23]tetraen]-7′-yl)oxy)acetic Acid], the concentration for half-maximal inhibition (IC50) worked out at 0.113 nM in experiment [1] (setting [3]) and 11200 nM in experiment [2] (setting [4]).
With `O=C1NS(=O)(=O)[C@@H]2C[C@H](O)C[C@H]2C/C=C/[C@H](O)[C@@H]2CC[C@H]2CN2C[C@@]3(CCCc4cc(Cl)ccc43)COc3ccc1cc32` (single isomer, unassigned) [Example 335], the results for the IC50 in experiment [1] (setting [5]) and in experiment [2] (16 h) were 0.263 nM and 2120 nM, respectively.
As for `O=C1NS(=O)(=O)C/C=C/C2(O)CCOC(C2)C2CCC2CN2CC3(CCCc4cc(Cl)ccc43)COc3ccc1cc32` (single isomer, unassigned) [Example 851], the IC50 was 1 nM in experiment [1] (setting [3]) and 19700 nM in experiment [2] (setting [4]).
With `CO[C@H]1/C=C/C[C@@H]2CN(C(C)=O)C[C@H]2S(=O)(=O)NC(=O)c2ccc3c(c2)N(C[C@@H]2CC[C@H]21)C[C@@]1(CCCc2cc(Cl)ccc21)CO3` (single isomer, unassigned) [Example 340], the IC50 in experiment [1] (setting [5]) amounted to 0.19 nM; in experiment [2] (16 h) it was 941 nM.
As to `CO[C@@H]1/C=C/CCCCS(=O)(=O)NC(=O)c2ccc3c(c2)N(C[C@@H]2CC[C@H]21)C[C@@]1(CCCc2cc(Cl)ccc21)CO3` [Example 229, (1S,3′R,6′R,7′R,8′E)-6-chloro-7′-methoxy-3,4-dihydro-2H,16′H-spiro[naphthalene-1,23′-[21]oxa[14]thia[1,15]diazatetracyclo[15.7.2.0^3,6.0^20,25]hexacosa[8,17,19,25]tetraen]-16′-one 14′,14′-dioxide], the IC50 came to 1.62 nM in experiment [1] (setting [5]) and 1720 nM in experiment [2] (setting [4]).
`CO[C@H](C)C[C@@H]1[C@@H](C)C/C=C/[C@H](OC)[C@@H]2CC[C@H]2CN2C[C@@]3(CCCc4cc(Cl)ccc43)COc3ccc(cc32)C(=O)NS1(=O)=O` (single isomer, unassigned) [Example 535]: the results for the IC50 in experiment [1] (setting [3]) and in experiment [2] (setting [4]) were 0.389 nM and 162 nM, respectively.
For `CC(=O)O[C@@H]1/C=C/C[C@H](C)[C@@H](C)S(=O)(=O)NC(=O)c2ccc3c(c2)N(C[C@@H]2CC[C@H]21)C[C@@]1(CCCc2cc(Cl)ccc21)CO3` [Example 1070, (1S,3′R,6′R,7′R,8′E,11′S,12′R)-6-chloro-11′,12′-dimethyl-13′,13′-dioxido-15′-oxo-3,4-dihydro-2H-spiro[naphthalene-1,22′-[20]oxa[13]thia[1,14]diazatetracyclo[14.7.2.0^3,6.0^19,24]pentacosa [8,16,18,24]tetraen]-7′-yl acetate], the IC50 is 1.07 nM in experiment [1] (setting [5]) and 1230 nM in experiment [2] (setting [6]).
With `COCCOCCOCCO[C@H]1/C=C/C[C@H](C)[C@@H](C)S(=O)(=O)NC(=O)c2ccc3c(c2)N(C[C@@H]2CC[C@H]21)C[C@@]1(CCCc2cc(Cl)ccc21)CO3` [Example 378, (1S,3′R,6′R,7′S,8′E,11′S,12′R)-6-chloro-7′-(2-(2-(2-methoxyethoxy)ethoxy)ethoxy)-11′,12′-dimethyl-3,4-dihydro-2H,15′H-spiro[naphthalene-1,22′-[20]oxa[13]thia[1,14]diazatetracyclo[14.7.2.0^3,6.0^19,24]pentacosa[8,16,18,24]tetraen]-15′-one 13′,13′-dioxide], the figures for the IC50 in experiment [1] (setting [5]) and in experiment [2] (setting [4]) were 0.24 nM and 140 nM, respectively.
As to `CC1C/C=C/[C@@H](O)[C@@H]2CC[C@H]2CN2C[C@@]3(CCCc4cc(Cl)ccc43)COc3ccc(cc32)C(=O)NS(=O)(=O)C1` (stereo in doubt) [Example 1088, (1S,3′R,6′R,7′R,8′E,11′S)-6-chloro-7′-hydroxy-11′-(methyl)-3,4-dihydro-2H,15′H-spiro [naphthalene-1,22′-[20]oxa[13]thia[1,14]diazatetracyclo[14.7.2.0^3,6.0^19,24]pentacosa [8,16,18,24]tetraen]-15′-one 13′,13′-dioxide], the IC50 in experiment [1] (setting [5]) amounted to 4.37 nM; in experiment [2] (setting [6]), 8980 nM.
With `COCCOCCN1CC/C=C/[C@H](O)[C@@H]2CC[C@H]2CN2C[C@@]3(CCCc4cc(Cl)ccc43)COc3ccc(cc32)C(=O)NS1(=O)=O` [Example 22, (1S,3′R,6′R,7′S,8′E)-6-chloro-7′-hydroxy-12′-(2-(2-methoxyethoxy)ethyl)-3,4-dihydro-2H,15′H-spiro[naphthalene-1,22′-[20]oxa[13]thia[1,12,14]triazatetracyclo[14.7.2.0^3,6.0^19,24]pentacosa[8,16,18,24]tetraen]-15′-one 13,13′-dioxide], the IC50 came out at 0.37 nM in experiment [1] (setting [5]) and 276 nM in experiment [2] (setting [4]).
On to `CCN1[C@H](C)C/C=C/[C@H](O)[C@@H]2CC[C@H]2CN2C[C@@]3(CCCc4cc(Cl)ccc43)COc3ccc(cc32)C(=O)NS1(=O)=O` [Example 59, (1S,3′R,6′R,7′S,8′E,11R)-6-chloro-12′-ethyl-7′-hydroxy-11′-methyl-3,4-dihydro-2H,15′H-spiro[naphthalene-1,22′-[20]oxa[13]thia[1,12,14]triazatetracyclo[14.7.2.0^3,6.0^19,24]pentacosa[8,16,18,24]tetraen]-15′-one 13′,13′-dioxide], for which the IC50 was found to be 4.27 nM in experiment [1] (setting [5]) and 7450 nM in experiment [2] (setting [4]).
`COC[C@H]1[C@@H](C)C/C=C\[C@H](O)[C@@H]2CC[C@H]2CN2C[C@@]3(CCCc4cc(Cl)ccc43)COc3ccc(cc32)C(=O)NS1(=O)=O` (single isomer, unassigned) [Example 457]: the IC50 in experiment [1] (setting [5]) was 0.263 nM; in experiment [2] (setting [4]), 296 nM.
Take `COc1ccc(CNCCO[C@H]2/C=C/C[C@H](C)[C@@H](C)S(=O)(=O)NC(=O)c3ccc4c(c3)N(C[C@@H]3CC[C@H]32)C[C@@]2(CCCc3cc(Cl)ccc32)CO4)c(OC)c1` [Example 777, (1S,3′R,6′R,7′S,8′E,11′S,12′R)-6-chloro-7′-(2-((2,4-dimethoxybenzyl)amino)ethoxy)-11′,12′-dimethyl-3,4-dihydro-2H,15′H-spiro[naphthalene-1,22′-[20]oxa[13]thia[1,14]diazatetracyclo[14.7.2.0^3,6.0^19,24]pentacosa[8,16,18,24]tetraen]-15′-one-13′, 13′-dioxide]: the figures for the IC50 in experiment [1] (setting [3]) and in experiment [2] (setting [4]) were 13.8 nM and 912 nM, respectively.
In the case of `CO[C@@H]1/C=C/[C@H](O)[C@@H]2CC[C@H]2CN2C[C@@]3(CCCc4cc(Cl)ccc43)COc3ccc(cc32)C(=O)NS(=O)(=O)[C@H](C)C1` (single isomer, unassigned) [Example 489], the IC50 in experiment [1] (setting [3]) was determined as 0.666 nM; in experiment [2] (16 h), 1220 nM.
In the case of `CO[C@H]1/C=C/[C@H](O)[C@@H]2CC[C@H]2CN2C[C@@]3(CCCc4cc(Cl)ccc43)COc3ccc(cc32)C(=O)NS(=O)(=O)[C@H](C)C1` (single isomer, unassigned) [Example 487], the figures for the IC50 in experiment [1] (setting [3]) and in experiment [2] (16 h) were 1.05 nM and 5800 nM, respectively.
With `O=C1NS(=O)(=O)CCOC2CCOC(C2)C2CCC2CN2CC3(CCCc4cc(Cl)ccc43)COc3ccc1cc32` (single isomer, unassigned) [Example 878], the IC50 in experiment [1] (setting [3]) turned out to be 9.46 nM; in experiment [2] (setting [4]), 7000 nM.
For `C[C@@H]1[C@@H](C)C/C=C/[C@H](OCCN2CCOC[C@@H]2C)[C@@H]2CC[C@H]2CN2C[C@@]3(CCCc4cc(Cl)ccc43)COc3ccc(cc32)C(=O)NS1(=O)=O` [Example 534, (1S,3′R,6′R,7′S,8′E,11′S,12′R)-6-chloro-11′,12′-dimethyl-7′-(2-((3S)-3-methyl-4-morpholinyl)ethoxy)-3,4-dihydro-2H,15′H-spiro[naphthalene-1,22′-[20]oxa[13]thia[1,14]diazatetracyclo[14.7.2.0^3,6.0^19,24]pentacosa [8,16,18,24]tetraen]-15′-one 13′,13′-dioxide] the same measures were 0.788 nM and 99.3 nM.
For `C[C@@H]1[C@@H](C)C/C=C/[C@H](OCCN2CCCC(F)(F)C2)[C@@H]2CC[C@H]2CN2C[C@@]3(CCCc4cc(Cl)ccc43)COc3ccc(cc32)C(=O)NS1(=O)=O` [Example 515, (1S,3′R,6′R,7′S,8′E,11′S,12′R)-6-chloro-7′-(2-(3,3-difluoro-1-piperidinyl)ethoxy)-11′,12′-dimethyl-3,4-dihydro-2H,15′H-spiro[naphthalene-1,22′-[20]oxa[13]thia[1,14]diazatetracyclo[14.7.2.0^3,6.0^19,24]pentacosa [8,16,18,24]tetraen]-15′-one 13′,13′-dioxide] the same measures were 4.87 nM and 2520 nM.
With `C[C@@]12C/C=C/[C@H](O)[C@@H]3CC[C@H]3CN3C[C@@]4(CCCc5cc(Cl)ccc54)COc4ccc(cc43)C(=O)NS(=O)(=O)[C@H]1CCC2` (single isomer, unassigned) [Example 130], the IC50 was 0.386 nM in experiment [1] (setting [5]) and 228 nM in experiment [2] (16 h).
Consider `COC[C@@H]1[C@@H](C)C/C=C/[C@H](O)[C@@H]2CC[C@H]2CN2C[C@@]3(CCCc4cc(Cl)ccc43)COc3ccc(cc32)C(=O)NS1(=O)=O` (single isomer, unassigned) [Example 455], for which the values for the IC50 in experiment [1] (setting [5]) and in experiment [2] (setting [4]) were 0.166 nM and 71.6 nM, respectively.
Take `C[C@H]1/C=C/[C@H](O)[C@@H]2CC[C@H]2CN2C[C@@]3(CCCc4cc(Cl)ccc43)COc3ccc(cc32)C(=O)NS(=O)(=O)[C@@H](C)C1` (single isomer, unassigned) [Example 1021]: the IC50 in experiment [1] (setting [5]) is 9.09 nM; in experiment [2] (16 h incubation) it was 27000 nM.
